Publication PMC12150326 (The Journal of Organic Chemistry, 2025)

What was measured:
Type in all cases: cell-based, human
MDA-MB-435 = test system: MDA-MB-435
Method: (§1) (aR)-6, (aS)-6, (aS)-iso -6, and (aR)-iso -6 were submitted to the 60 Cell Screen panel and evaluated at 5 doses (100 μM, 10 μM, 1 μM, 0.1 μM, and 0.01 μM). […] The complete report from this submission is available at the publisher’s Web site as a separate Supporting Information file. For COMPARE analysis, TGI levels of response for (aR)-DM-MTC (6) and (aS)-iso-DM-MTC were compared to those of several established tubulin inhibitors previously tested in the NCI-60 screen.

K-562 = test system: K-562
Method: as §1

MOLT-4 = test system: MOLT-4
Method: as §1

OVCAR-4 = test system: OVCAR-4
Method: as §1

HCT-15 = test system: HCT-15
Method: as §1

EKVX = test system: EKVX
Method: as §1

NCI/ADR-RES = test system: NCI/ADR-RES
Method: as §1

OVCAR-8 = test system: OVCAR-8
Method: as §1

HS 578T = test system: HS 578T
Method: as §1

T-47D = test system: T-47D
Method: as §1

A549/ATCC = test system: A549/ATCC
Method: as §1

HCT-116 = test system: HCT-116
Method: as §1

NCI-H460 = test system: NCI-H460
Method: as §1

A498 = test system: A498
Method: as §1

SF-295 = test system: SF-295
Method: as §1

NCI-H23 = test system: NCI-H23
Method: as §1

SK-OV-3 = test system: SK-OV-3
Method: as §1

SF-539 = test system: SF-539
Method: as §1

SK-MEL-28 = test system: SK-MEL-28
Method: as §1

HOP-62 = test system: HOP-62
Method: as §1

MDA-MB-231/ATCC = test system: MDA-MB-231/ATCC
Method: as §1

HL-60(TB) = test system: HL-60(TB)
Method: as §1

SNB-19 = test system: SNB-19
Method: as §1

SK-MEL-2 = test system: SK-MEL-2
Method: as §1

M14 = test: Cell-growth inhibition (CellTiter); conditions: M14, 3 days; read-out: Cell Growth Inhibition GI50 ± SE
Method: (§2) Inhibition of cell growth was determined by using standard procedures. Cell lines were obtained from the NCI anticancer drug screen and maintained in DMEM medium supplemented with 10% fetal bovine serum. Growing cells were exposed to serial dilutions of each compound for 3 days. Cell growth was determined with CellTiter Assay Reagent (Promega), and growth parameters, including inhibition of growth, were measured by using the methods specified by the manufacturer.

A549 = test: Cell-growth inhibition (CellTiter); conditions: A549, 3 days; read-out: Cell Growth Inhibition GI50 ± SE
Method: as §2

PC3 = test: Cell-growth inhibition (CellTiter); conditions: PC3, 3 days; read-out: Cell Growth Inhibition GI50 ± SE
Method: as §2

COc1cc(C)c(-c2ccc(OC)c(=O)cc2C)c(OC)c1OC (single isomer, unassigned) [(aS)-6]
Log10GI50 (MDA-MB-435): -4.14 Molar
Log10LC50 (MDA-MB-435): > -4.00 Molar
Log10TGI (MDA-MB-435): > -4.00 Molar
Log10GI50 (K-562): -4.38 Molar
Log10LC50 (K-562): > -4.00 Molar
Log10TGI (K-562): > -4.00 Molar
Log10GI50 (MOLT-4): > -4.00 Molar
Log10LC50 (MOLT-4): > -4.00 Molar
Log10TGI (MOLT-4): > -4.00 Molar
Log10GI50 (OVCAR-4): > -4.00 Molar
Log10LC50 (OVCAR-4): > -4.00 Molar
Log10TGI (OVCAR-4): > -4.00 Molar
Log10GI50 (HCT-15): > -4.00 Molar
Log10LC50 (HCT-15): > -4.00 Molar
Log10TGI (HCT-15): > -4.00 Molar
Log10GI50 (EKVX): > -4.00 Molar
Log10LC50 (EKVX): > -4.00 Molar
Log10TGI (EKVX): > -4.00 Molar
Log10GI50 (NCI/ADR-RES): > -4.00 Molar
Log10LC50 (NCI/ADR-RES): > -4.00 Molar
Log10TGI (NCI/ADR-RES): > -4.00 Molar
Log10GI50 (OVCAR-8): > -4.00 Molar
Log10LC50 (OVCAR-8): > -4.00 Molar
Log10TGI (OVCAR-8): > -4.00 Molar
Log10GI50 (HS 578T): > -4.00 Molar
Log10LC50 (HS 578T): > -4.00 Molar
Log10TGI (HS 578T): > -4.00 Molar
Log10GI50 (T-47D): > -4.00 Molar
Log10LC50 (T-47D): > -4.00 Molar
Log10TGI (T-47D): > -4.00 Molar
Log10GI50 (A549/ATCC): > -4.00 Molar
Log10LC50 (A549/ATCC): > -4.00 Molar
Log10TGI (A549/ATCC): > -4.00 Molar
Log10GI50 (HCT-116): > -4.00 Molar
Log10LC50 (HCT-116): > -4.00 Molar
Log10TGI (HCT-116): > -4.00 Molar
Log10GI50 (NCI-H460): > -4.00 Molar
Log10LC50 (NCI-H460): > -4.00 Molar
Log10TGI (NCI-H460): > -4.00 Molar
Log10GI50 (A498): > -4.00 Molar
Log10LC50 (A498): > -4.00 Molar
Log10TGI (A498): > -4.00 Molar
Log10GI50 (SF-295): > -4.00 Molar
Log10LC50 (SF-295): > -4.00 Molar
Log10TGI (SF-295): > -4.00 Molar
Log10GI50 (NCI-H23): > -4.00 Molar
Log10LC50 (NCI-H23): > -4.00 Molar
Log10TGI (NCI-H23): > -4.00 Molar
Log10GI50 (SK-OV-3): > -4.00 Molar
Log10LC50 (SK-OV-3): > -4.00 Molar
Log10TGI (SK-OV-3): > -4.00 Molar
Log10GI50 (SF-539): > -4.00 Molar
Log10LC50 (SF-539): > -4.00 Molar
Log10TGI (SF-539): > -4.00 Molar
Log10GI50 (SK-MEL-28): > -4.00 Molar
Log10LC50 (SK-MEL-28): > -4.00 Molar
Log10TGI (SK-MEL-28): > -4.00 Molar
Log10GI50 (HOP-62): > -4.00 Molar
Log10LC50 (HOP-62): > -4.00 Molar
Log10TGI (HOP-62): > -4.00 Molar
Log10GI50 (MDA-MB-231/ATCC): > -4.00 Molar
Log10LC50 (MDA-MB-231/ATCC): > -4.00 Molar
Log10TGI (MDA-MB-231/ATCC): > -4.00 Molar
Log10GI50 (HL-60(TB)): > -4.00 Molar
Log10LC50 (HL-60(TB)): > -4.00 Molar
Log10TGI (HL-60(TB)): > -4.00 Molar
Log10GI50 (SNB-19): > -4.00 Molar
Log10LC50 (SNB-19): > -4.00 Molar
Log10TGI (SNB-19): > -4.00 Molar
Log10GI50 (SK-MEL-2): > -4.00 Molar
Log10LC50 (SK-MEL-2): > -4.00 Molar
Log10TGI (SK-MEL-2): > -4.00 Molar
GI50 (M14): > 20 µM
GI50 (A549): > 20 µM
GI50 (PC3): > 20 µM
